The subject of assay [1] is MDA-MB-231. Briefly: Synergistic antiproliferative activity against human MDA-MB-231 cells at compound to DMXAA mol ratio of 1:1 after 48 hrs by CCK8 assay relative to compound alone. Format: functional. (In general: Tetrazolium dyes change colour on reduction, which living cells bring about.)
Assay [2] deals with MDA-MB-231. Kind of assay: Induction of apoptosis in human MDA-MB-231 cells assessed as necrotic cells at 0.2 uM after 48 hrs by Annexin-V/FITC/PI staining based flow cytometry (reference value: 1.55 %). The assay is classed as functional. (Flow cytometry measures light scatter and fluorescence of single cells or particles in a stream.)
Assay [3] deals with MDA-MB-231. Kind of assay: Induction of apoptosis in human MDA-MB-231 cells assessed as late apoptotic cells at 0.8 uM after 48 hrs by Annexin-V/FITC/PI staining based flow cytometry (reference value: 1.50 %). The assay is classed as functional.
In assay [4] the test system is MDA-MB-231. Kind of assay: Induction of apoptosis in human MDA-MB-231 cells after 48 hrs by Annexin-V/FITC/PI staining based flow cytometry. The assay is classed as functional, cell-based.
Assay [5] relates to MDA-MB-231. Kind of assay: Synergistic induction of apoptosis in human MDA-MB-231 cells assessed as early apoptotic cells at 0.2 uM after 48 hrs in presence of DMXAA by Annexin-V/FITC/PI staining based flow cytometry (reference value: 0.05 %). The assay is classed as functional.
Assay [6] has as its system MDA-MB-231. Kind of assay: Induction of apoptosis in human MDA-MB-231 cells assessed as late apoptotic cells at 0.2 uM after 48 hrs by Annexin-V/FITC/PI staining based flow cytometry (reference value: 1.50 %). The assay is classed as functional.
For assay [7], the system named is MDA-MB-231. Kind of assay: Synergistic induction of apoptosis in human MDA-MB-231 cells assessed as necrotic cells at 0.2 uM after 48 hrs in presence of DMXAA by Annexin-V/FITC/PI staining based flow cytometry (reference value: 0.00 %). The assay is classed as functional.
The subject of another assay is HepG2. Kind of assay: Antiproliferative activity against human HepG2 cells after 48 hrs by CCK8 assay. The assay is classed as functional, cell-based. The following applies: HepG2, 48 h.
Assay [8] deals with MDA-MB-231. Briefly: Increase in p53 level in human MDA-MB-231 cells at 0.2 to 0.8 uM after 48 hrs by Western blot analysis. The assay is classed as functional, cell-based.
Assay [9] relates to MDA-MB-231. Briefly: Induction of apoptosis in human MDA-MB-231 cells assessed as viable cells at 0.4 uM after 48 hrs by Annexin-V/FITC/PI staining based flow cytometry (reference value: 96.51 %). The assay is classed as functional. The settings on record: MDA-MB-231, 48 h, read-out: Activity.
The subject of assay [10] is MDA-MB-231. Kind of assay: Synergistic induction of apoptosis in human MDA-MB-231 cells assessed as early apoptotic cells at 0.4 uM after 48 hrs in presence of DMXAA by Annexin-V/FITC/PI staining based flow cytometry (reference value: 0.05 %). The assay is classed as functional.
A further assay deals with MCF7. Briefly: Synergistic antiproliferative activity against human MCF7 cells at compound to DMXAA mol ratio of 1:1 after 48 hrs by CCK8 assay. Format: functional, cell-based. The settings on record: MCF7, 48 h.
The subject of assay [11] is MDA-MB-231. Kind of assay: Synergistic cell cycle arrest in human MDA-MB-231 cells assessed as accumulation at G2/M phase at 0.2 to 0.8 uM after 48 hrs in presence of DMXAA by propidium iodide staining based flow cytometric method. The assay is classed as functional.
The subject of the next assay is COLO 320. Kind of assay: Synergistic antiproliferative activity against human COLO320 cells at compound to DMXAA mol ratio of 1:1 after 48 hrs by CCK8 assay. Format: functional, cell-based. The following applies: COLO 320, 48 h.
Assay [12] concerns MDA-MB-231. Kind of assay: Induction of apoptosis in human MDA-MB-231 cells assessed as increase in cleaved caspase-3 expression at 0.2 to 0.8 uM after 48 hrs by Western blot analysis. Format: functional, cell-based. Background: In western blotting, separated proteins are transferred to a membrane and probed.
Assay [13] concerns MDA-MB-231. Briefly: Decrease in MDM2 level in human MDA-MB-231 cells at 0.2 to 0.8 uM after 48 hrs by Western blot analysis. The assay is classed as functional, cell-based.
Assay [14] deals with MDA-MB-231. Kind of assay: Induction of apoptosis in human MDA-MB-231 cells assessed as early apoptotic cells at 0.2 uM after 48 hrs by Annexin-V/FITC/PI staining based flow cytometry (reference value: 0.44 %). The assay is classed as functional.
Assay [15] deals with MDA-MB-231. Briefly: Induction of apoptosis in human MDA-MB-231 cells assessed as necrotic cells at 0.4 uM after 48 hrs by Annexin-V/FITC/PI staining based flow cytometry (reference value: 1.55 %). Format: functional.
For assay [16], the system named is MDA-MB-231. Briefly: Synergistic cell cycle arrest in human MDA-MB-231 cells assessed as accumulation at S phase 0.2 to 0.8 uM after 48 hrs in presence of DMXAA by propidium iodide staining based flow cytometric method relative to control. Format: functional.
Another assay has as its system K562. Kind of assay: Synergistic antiproliferative activity against human K562 cells at compound to DMXAA mol ratio of 1:1 after 48 hrs by CCK8 assay. The assay is classed as functional, cell-based. The settings on record: K562, 48 h.

Active and inactive are the calls of the source. The rule behind the calls is not given here.

A word on the IC50: it is the concentration at which inhibition is half-maximal. As for `O=c1c2cc(Br)ccc2oc2cc(O)cc(O)c12`, the “fold change (FC)” value in the assay on MDA-MB-231 [1] amounted to 10. Moreover, the Activity in the assay with MDA-MB-231 [2] was 14.44%; in the assay with MDA-MB-231 [3], 13.71%; with MDA-MB-231 [4], “Dose-dependent effect”; in the assay with MDA-MB-231 [5], 2.79%; in the assay on MDA-MB-231 [6], 5.35%; in the assay with MDA-MB-231 [7], 38.43%. In addition, the Activity with MDA-MB-231 [10] stood at 4.7%; in the assay on MDA-MB-231 [14] it was 0.98%; in the assay with MDA-MB-231 [15], 38.81%; in the assay with MDA-MB-231 [16], 26.5%. In addition, the IC50 was found to be 9.2 µM with HepG2, 2.41 µM with MCF7, 5.12 µM with COLO 320 and 10.2 µM in the assay with K562. Besides, the outcome in the assay with MDA-MB-231 [8], with MDA-MB-231 [12] and with MDA-MB-231 [13] was Active. In the assay on MDA-MB-231 [9], the viability at 0.4 µM amounted to 47.9%. The outcome in the assay on MDA-MB-231 [11] was inactive.
